The source of these data is article PMC9370056, “Pyrimidines-Based Heterocyclic Compounds: Synthesis, Cytoxicity Evaluation and Molecular Docking” (Molecules, 2022).

For one series, the system named is PC3 and MRC-5 cell lines. The series is described as follows: Selectivity index, CC50 on normal cells / IC50 on cancer cells. The series is classed as cell-based, human. The settings on record: CC50 on MRC-5 / IC50 on PC3. The source says:
The selectivity index (SI) is a measure of the drug candidate’s selectivity towards cancer cells rather than normal cells. It can be calculated as the ratio between the tested compound CC50 on normal cells and its IC50 on cancer cells.

The test system of series [1] is normal human lung fibroblasts (MRC-5).
Procedure: (§3) Preliminary in vitro anticancer activity of two compounds (2, and 3a) against the growth of five human cancer cell lines (prostate carcinoma PC3, liver carcinoma HepG-2, human colon cancer HCT-116, human breast cancer MCF-7, human lung cancer A-549) and normal human lung fibroblasts (MRC-5) were performed using the MTT assay as described in the experimental section. The inhibitory potency of the screened compounds against the tested cell lines was compared to vinblastine sulfate as a reference anticancer drug.
(§4) MRC-5 (normal human Lung fibroblast cells) were obtained from VACSERA Tissue Culture Unit. […] The normal human lung fibroblasts (MRC-5) cells were propagated in Dulbecco’s Modified Eagle’s Medium (DMEM) supplemented with 10% heat-inactivated fetal bovine serum, 1% L-glutamine, HEPES buffer, and 50µg/mL gentamycin. […] All cells were maintained at 37 °C in a humidified atmosphere with 5% CO2 and were subcultured two times a week. Chemicals used: Dimethyl sulfoxide (DMSO), MTT (3-(4,5-dimethylthiazol-2-yl)-2,5-diphenyl tetrazolium bromide), crystal violet, and trypan blue dye were purchased from Sigma (St. Louis, MO, USA). Fetal bovine serum, DMEM, RPMI-1640, HEPES buffer solution, L-glutamine, gentamycin, and 0.25% trypsin-EDTA were purchased from Lonza. Crystal violet stain (1%): composed of 0.5% (w/v) crystal violet and 50% methanol then made up to volume with deionized water and filtered through a Whatman No.1 filter paper.
(§5) For cytotoxicity assay, the normal human lung fibroblasts (MRC-5) cells were seeded in a 96-well plate at a cell concentration of 1 × 10^4 cells per well in 100 µL of growth medium. Fresh medium containing different concentrations of the test sample was added after 24 h of seeding. Serial two-fold dilutions of the tested chemical compound were added to confluent cell monolayers dispensed into 96-well, flat-bottomed microtiter plates (Falcon; Franklin, NJ, USA) using a multichannel pipette. The microtiter plates were incubated at 37 °C in a humidified incubator with 5% CO2 for a period of 24 h. Three wells were used for each concentration of the test sample. Control cells were incubated without the test sample and with or without DMSO. […] After incubation of the cells, viable cell yield was determined by a colorimetric method. After incubating for 24 h, the numbers of viable cells were determined by the MTT test. The cytotoxic concentration (CC50), the concentration required to cause toxic effects in 50% of intact cells, was estimated from graphic plots of the dose–response curve for each conc. using GraphPad Prism software (San Diego, CA. USA).
Series [2] concerns human prostate carcinoma cell line PC3. The series is described as follows: MTT viability assay, PC3 prostate carcinoma. Particulars: for IC50: 24 h. The series is classed as cell-based. As to the method: (§1) For antitumor assays, the human prostate carcinoma cell line PC3 was suspended in medium at a concentration of 5 × 10^4 cell/well in Corning® 96-well tissue culture plates, then incubated for 24 h. The tested compounds were then added into 96-well plates (three replicates) to achieve eight concentrations for each compound. Six vehicle controls with media or 0.5 % DMSO were run for each 96-well plate as a control. […] Briefly, the media was removed from the 96-well plate and replaced with 100 µL of fresh culture RPMI-1640 medium without phenol red then 10 µL of the 12 mM MTT stock solution (5 mg of MTT in 1 mL of PBS) to each well including the untreated controls. The 96-well plates were then incubated at 37 °C and 5% CO2 for 4 h. An 85 µL aliquot of the media was removed from the wells, and 50 µL of DMSO was added to each well and mixed thoroughly with a pipette and incubated at 37 °C for 10 min. Then, the optical density was measured at 590 nm with the microplate reader (Sunrise, Tecan Inc, Morrisville, NC, USA) to determine the number of viable cells and the percentage of viability was calculated as [(ODt/ODc)] × 100% where ODt is the mean optical density of wells treated with the tested sample and ODc is the mean optical density of untreated cells. The relation between surviving cells and drug concentration was plotted to obtain the survival curve of each tumor cell line after treatment with the specified compound.
A general note: Tetrazolium assays rely on reduction of a dye to a coloured formazan, in cell work by metabolically active cells.

Series [3] in a line: MTT cytotoxicity assay, normal lung fibroblasts MRC-5. The settings on record: human, MRC-5 normal lung fibroblast cells.
Procedure: as §3, §4, §5
For a further series, the system named is MRC cell line. The series is described as follows: Microscopic observation of treated normal cells (crystal violet). Format: cell-based, human. Particulars: 50 µg/mL, 100×, relative to untreated cells. The method, then: (§2) This experiment was performed as previously described in the procedure for antitumor activity. After the end of the treatment at 50 µg/mL concentration, the plates were inverted to remove the medium, the wells were washed three times with 300 µL of phosphate buffered saline (pH 7.2), and then the cells were fixed to the plate with 10% formalin for 15 min at room temperature. The fixed cells were then stained with 100 µL of 0.25% crystal violet for 20 min. The stain was removed, and the plates were rinsed using deionized water to remove the excess stain and then allowed to dry. The cellular morphology was observed using an inverted microscope (CKX41; Olympus, Tokyo, Japan) equipped with a digital microscopy camera to capture the images representing the morphological changes compared to control cells. The cytopathic effects (morphological alterations) were microscopically detected at 100×.

In another series the test system is PC3 cell line. The series is described as follows: Microscopic observation of treated tumor cells (crystal violet). The series is classed as cell-based, human. Particulars: 50 µg/mL, 100×, relative to untreated cells. As to the method: as §2
A further series relates to human lung cancer A-549. The series is described as follows: MTT assay, A-549. The series is classed as cell-based. The settings on record: A549, Table 1, MTT. The method, then: [The procedure below names another cell line; the source lists this cell line under the same test.] as §1
Series [4] concerns normal human lung fibroblasts (MRC-5). The series is described as follows: MTT cytotoxicity assay, normal lung fibroblasts MRC-5. The settings on record: Homo sapiens, MRC5, 24 h, read-out: IC50 Values MRC-5.
Series [5] has as its system human colon cancer HCT-116. The series is described as follows: MTT assay, HCT-116. Format: cell-based. Particulars: Table 1, MTT. As to the method: [The procedure below names another cell line; the source lists this cell line under the same test.] as §1
The subject of another series is liver carcinoma HepG-2. The series is described as follows: MTT assay, HepG-2. The settings on record: Homo sapiens, HepG2; Table 1, MTT. The series is classed as cell-based. As to the method:
[The procedure below names another cell line; the source lists this cell line under the same test.] as §1

The test system of series [6] is human breast cancer MCF-7. The series is described as follows: MTT assay, MCF-7. Format: cell-based. The settings on record: MCF7, Table 1, MTT. As to the method: [The procedure below names another cell line; the source lists this cell line under the same test.] as §1
The mark [7] stands for this setting: Homo sapiens, Table 2, MTT, three replicates.

Counter-ions that a name gives are not always drawn.

With “3-Hydroxy-6-oxo-8-phenyl-2,6-dihydro-1H-pyrimido[2,1-c]-1,2,4-triazine-7-carbonitrile [Compound 6]”, the “SI (selectivity index)” value in the series with PC3 and MRC-5 cell lines is recorded as 2.17. Besides, the CC50 in series [1] stood at 453 ± 13 µM. Besides, it took 208 ± 7 µM to reach half-maximal inhibition in series [2] (Table 2, MTT, three replicates) (IC50).

Compound `N#Cc1c(-c2ccccc2)nc(N/N=C/c2ccc(Br)cc2)[nH]c1=O` [Compound 3b, 2-(2-(4-Bromobenzylidene)hydrazinyl)-6-oxo-4-phenyl-1,6-dihydropyrimidine-5-carbonitri-le] returned a CC50 at 24 h in series [3] of 147 ± 4 µM. In addition, the “Morphological changes of MRC cells” value in the series on MRC cell line is “no significant apoptotic effect”. In the series with PC3 cell line, the “Morphological changes of PC3 cells” value was “the cancer cells shrank and lost their normal shape”. Also, half-maximal inhibition in series [2] (setting [7]) (IC50) was put at 21 ± 1 µM.

In the case of `N#Cc1c(-c2ccccc2)nc(N/N=C/c2ccc(Cl)cc2)[nH]c1=O` [Compound 3c, 2-(2-(4-Chlorobenzylidene)hydrazinyl)-6-oxo-4-phenyl-1,6-dihydropyrimidine-5-carbonitri-le], in series [3], the CC50 at 24 h stood at 675 ± 19 µM. Further, the “SI (selectivity index)” value in the series on PC3 and MRC-5 cell lines is 1.93. In addition, the IC50 (in general, the point on the concentration scale where inhibition reaches its midpoint) in [2] (setting [7]) worked out at 349 ± 9 µM.

In series [3], `Cc1ccccc1/C=N/Nc1nc(-c2ccccc2)c(C#N)c(=O)[nH]1` [Compound 3e, 2-(2-(2-Methylbenzylidene)hydrazinyl)-6-oxo-4-phenyl-1,6-dihydropyrimidine-5-carboni-trile] had a CC50 at 24 h of 428 ± 16 µM. The “SI (selectivity index)” value in the series with PC3 and MRC-5 cell lines was 2.34. This compound also displayed an IC50 in series [2] (setting [7]) of 182 ± 5 µM.

Take `N#Cc1c(-c2ccccc2)nc(N/N=C/c2ccccc2Cl)[nH]c1=O` [Compound 3d, 2-(2-(2-Chlorobenzylidene)hydrazinyl)-6-oxo-4-phenyl-1,6-dihydropyrimidine-5-carbonitri-le]: the CC50 at 24 h in series [3] was found to be 44 ± 1 µM. Also, the “SI (selectivity index)” value in the series on PC3 and MRC-5 cell lines is on record as 2.52. For the same compound, the IC50 in series [2] (setting [7]) is 17 ± 1 µM. For the same compound, in series [2] (PC3, from IC50 values), the “fold more potent than vinblastine sulfate” value is 2 to 3 fold.

`N#Cc1c(-c2ccccc2)nc(N/N=C2\C(=O)Nc3ccccc32)[nH]c1=O` [Compound 4, 6-Oxo-2-(2-(isatin-3-ylidene)hydrazinyl)-4-phenyl-1,6-dihydropyrimidine-5-carbonitrile]: the CC50 at 24 h in series [3] was 348 ± 11 µM. In the series with PC3 and MRC-5 cell lines, the “SI (selectivity index)” value was found to be 0.57. This compound showed a 50% inhibitory concentration (IC50) in series [2] (setting [7]) of 603 ± 19 µM.

With `N#Cc1c(-c2ccccc2)nc(NN)[nH]c1=O` [Compound 2, 2-Hydrazino-6-oxo-4-phenyl-1,6-dihydropyrimidine-5-carbonitrile], the IC50 in the series with human lung cancer A-549 was determined as 264 µM; in series [4] it was 532 µM; in series [5] it was 180 µM; in the series on liver carcinoma HepG-2, 99 µM; in series [2] (Homo sapiens, Table 1, MTT) it was 258 µM; in series [6], 236 µM. In series [3], this compound displayed a CC50 at 24 h of 532 ± 14 µM. Also, the “SI (selectivity index)” value with PC3 and MRC-5 cell lines is given as 2.05.

The compound `N#Cc1c(-c2ccccc2)nc(NN=CC=Cc2ccccc2)[nH]c1=O` [Compound 3h, 6-Oxo-4-phenyl-2-(2-(3-phenylallylidene)hydrazinyl)-1,6-dihydropyrimidine-5-carbonitrile] showed a CC50 at 24 h in series [3] of 180 ± 9 µM. Also, the “Morphological changes of MRC cells” value with MRC cell line is recorded as “no significant apoptotic effect”. In addition, the “Morphological changes of PC3 cells” value with PC3 cell line was “the cancer cells shrank and lost their normal shape”. For the same compound, the midpoint of inhibition in series [2] (setting [7]), the IC50, lay at 44 ± 2 µM.

In series [3], `N#Cc1c(-c2ccccc2)nc(NN=Cc2ccc([N+](=O)[O-])cc2)[nH]c1=O` [Compound 3i, 2-(2-(4-Nitrobenzylidene)hydrazinyl)-6-oxo-4-phenyl-1,6-dihydropyrimidine-5-carbonitrile] gave a CC50 at 24 h of 82 ± 3 µM. Besides, the “SI (selectivity index)” value in the series with PC3 and MRC-5 cell lines came out at 2.18. For the same compound, the IC50 in series [2] (setting [7]) came to 37 ± 2 µM.

On to `CC[C@]1(O)C[C@@H]2CN(CCc3c([nH]c4ccccc34)[C@@](C(=O)OC)(c3cc4c(cc3OC)N(C)[C@H]3[C@@](O)(C(=O)OC)[C@H](OC(C)=O)[C@]5(CC)C=CCN6CC[C@]43[C@@H]65)C2)C1` [Vinblastine sulfate, reference compound], for which the IC50 was 27 µM in the series with human lung cancer A-549; 65 µM in series [4]; 4 µM in series [5]; 3 µM in the series with liver carcinoma HepG-2; 46 µM in [2] (Homo sapiens, Table 1, MTT); 6 µM in series [6]. This compound displayed a CC50 at 24 h in [3] of 65 ± 2 µM. The “SI (selectivity index)” value with PC3 and MRC-5 cell lines was 1.40.

Take `N#Cc1c(-c2ccccc2)nc2n(c1=O)C(c1ccccc1)C(c1ccccc1)=NN2` (stereo not drawn) [Compound 5, 6-Oxo-3,4,8-triphenyl-4,6-dihydro-1H-pyrimido[2,1-c]-1,2,4-triazine-7-carbonitrile]: the CC50 at 24 h in series [3] came out at 263 ± 7 µM. For the same compound, in the series with MRC cell line, the “Morphological changes of MRC cells” value was “no significant apoptotic effect”. In the series with PC3 cell line, the “Morphological changes of PC3 cells” value was “the cancer cells shrank and lost their normal shape”. Also, in series [2] (setting [7]), the IC50 amounted to 72 ± 2 µM.

As to `N#Cc1c(-c2ccccc2)nc(NN=Cc2ccccc2)[nH]c1=O` [Compound 3a, 2-(2-Benzylidenehydrazinyl)-6-oxo-4-phenyl-1,6-dihydropyrimidine-5-carbonitrile], the IC50 in the series with human lung cancer A-549 was 98 µM; in series [4], 92 µM; in [5] it was 149 µM; with liver carcinoma HepG-2 it was 59 µM; in series [2] (Homo sapiens, Table 1, MTT), 93 µM; in [6] it was 81 µM. This compound also had a CC50 at 24 h in series [3] of 92 ± 3 µM. Besides, the “SI (selectivity index)” value in the series on PC3 and MRC-5 cell lines was found to be 0.99.

In turn, `COc1cccc(/C=N/Nc2nc(-c3ccccc3)c(C#N)c(=O)[nH]2)c1` [Compound 3f, 2-(2-(3-Methoxybenzylidene)hydrazinyl)-6-oxo-4-phenyl-1,6-dihydropyrimidine-5-carbo-nitrile] registered a CC50 at 24 h in [3] of 339 ± 11 µM. Further, in the series with MRC cell line, the “Morphological changes of MRC cells” value is reported as “no significant apoptotic effect”. The “Morphological changes of PC3 cells” value in the series with PC3 cell line was “the cancer cells shrank and lost their normal shape”. The IC50 in series [2] (setting [7]) turned out to be 88 ± 2 µM.

For the compound `N#Cc1c(-c2ccccc2)nc(N/N=C/c2ccc(O)cc2)[nH]c1=O` [Compound 3g, 2-(2-(4-Hydroxybenzylidene)hydrazinyl)-6-oxo-4-phenyl-1,6-dihydropyrimidine-5-carboni-trile], the CC50 at 24 h in series [3] was 311 ± 14 µM. In addition, in the series with MRC cell line, the “Morphological changes of MRC cells” value was “no significant apoptotic effect”. Further, the “Morphological changes of PC3 cells” value in the series on PC3 cell line was “the cancer cells shrank and lost their normal shape”. The same compound gave a half-maximal inhibitory concentration (IC50) in series [2] (setting [7]) of 64 ± 3 µM.
